Data from patent US20230218654A1, “COMPOSITIONS AND METHODS FOR TREATING HYPERGLYCEMIA IN TYPE-2 DIABETES” (The Board of Regents of the university of Oklahoma, priority 2020, published 2023).
Entries after “also recorded” stand apart in the source; their conditions may differ.

What was measured:
high fat diet-fed mice = settings: i.p. injection; cited from earlier work
[1] = tested on: hepatic CRL (cullin) neddylation and hepatic insulin signaling; experiment: Western blot of liver lysates after acute MLN4924 injection; type: in vivo; settings: chow-fed mice, 6 h fast; for hepatic CRL (cullin) neddylation: 60 mg/kg at 5 pm day 1 and 9 am day 2 (IP or SQ)
Experimental: A. Western blot of liver lysates. Chow-fed male C56BL/6J mice were injected with 60 mg/kg MLN4924 or Vehicle (10% 2HO-β-cyclodextrin) at 5 pm on day 1 and 9 am on day 2, and sacrificed at 3 pm after 6 h fast. Upper arrow: Neddylated Cul3; Lower arrow: de-neddylated Cul3. Veh=vehicle; IP=intraperitoneal; SQ=subcutaneous.
FIG. 12A is a Western blot showing that MLN4924 inhibits liver cullin neddylation and increases IRS protein abundance and insulin signaling activation. Chow-fed male C56BL/6J mice were subcutaneously (SQ) injected 60 mg/kg MLN4924 or Veh (10 % 2HO-β-cyclodextrin) at 5 pm on day 1 and 9 am on day 2. Mice were fasted from 9 am to 3 pm on day 2 and sacrificed. Upper and lower arrows indicate neddylated cullin1 and cullin3 bands, respectively.
MLN4924 and TAS4464 were purchased from MedChemExpress (MCE, Monmouth Junction, NJ). For cell treatment, MLN4924 and TAS4464 were dissolved in DMSO. Cells were serum starved overnight and then treated with MLN4924, TAS4464 and/or insulin as indicated. For injection in mice, MLN4924 and TAS4464 were first dissolved in DMSO, which was further suspended in 10% (2-hydroxypropyl)-β-cyclodextrin (Sigma, St. Louis, MO). The final solution contains 1% DMSO. The subcutaneous injection volume is 200 µl/mouse.
Protein lysates were prepared in RIPA buffer containing 1% SDS and protease inhibitors on ice for 1 h followed by brief sonication. After centrifugation, supernatant was used for SDS-PAGE and immunoblotting.
WT male C57BL/6J mice were purchased from the Jackson Lab (Bar Harbor, ME). Western diet (TD. 88137, Envigo Inc. Indianapolis, IN) contains 42% fat calories and 0.2% cholesterol. Mice were housed in micro-isolator cages with corn cob bedding under 7 am - 7 pm light cycle and 7 pm -7 am dark cycle. MLN4924 was prepared in 10% 2-hydroxypropyl-b-cyclodextrin to a final concentration of 3 mg/ml. All mice were fasted for 6 h from 9 am to 3 pm before euthanasia. All animals received humane care according to the criteria outlined in the “Guide for the Care and Use of Laboratory Animals.” All animal protocols were approved by the Institutional Animal Care and Use Committee at the University of Kansas Medical Center and the University of Oklahoma Health Sciences Center.
(§1) Human normal livers (less than 5% steatosis) and histologically confirmed NASH livers were obtained from either the University of Kansas Liver Center or the Liver Tissue Cell Distribution System (LTCDS) at the University of Minnesota. Human and mouse tissue samples were homogenized in 1XRIPA buffer containing 1% SDS and protease inhibitors. After incubation on ice for 1 hour, the samples were centrifugation and supernatant was transferred to a new tube. The protein lysate was mixed with equal volume of 2X laemmli buffer and incubated at 95° C. for 5 minutes and used for SDS-PAGE and immunoblotting. ImageJ software (NIH) was used to determine band intensity.
(§2) To further explore the hepatic insulin sensitizing effect of neddylation inhibition in vivo, we administered MLN4924 to chow-fed mice twice via subcutaneous (SQ) injection (5 pm on day 1 and 9 am on day 2) and studied the acute effect of MLN4924. The dose of 60 mg/kg is in line with published literature. […] In addition to liver, skeletal muscle is another organ that quantitatively contribute to plasma glucose homeostasis.

[2] = tested on: skeletal muscle cullin neddylation and AKT phosphorylation; experiment: Western blot of gastrocnemius (skeletal) muscle after acute MLN4924; type: in vivo, mice; settings: chow diet; 60 mg/kg SQ twice
Experimental: Male C57BL/6J mice on chow diet were treated with 60 mg/kg MLN6924 via subcutaneous (SQ) injection at 5 pm on day 1 and 9 am on day 2. Mice were fasted from 9 am to 3 pm on day 2 and sacrificed. Effect of MLN4924 on gastrocnemius muscle cullin neddylation and AKT phosphorylation was measured by Western blotting.
as §1, §2

male C57BL/6J mice [3] = experiment: Pyruvate tolerance test (PTT); type: in vivo; settings: 60 mg/kg SQ twice; for blood glucose excursion / hepatic glucose production in PTT: 6 h fast, 60 mg/kg
Experimental: On the day of testing, mice were fasted for 6 h (from 9am to 3 pm). Mice were then given 2 g/kg sodium pyruvate via IP injection. Blood glucose was measured with an UltraTouch glucometer in time course over a 120-minute period.
(§3) Mice were treated with 2 doses of MLN4924 as described. After the second injection at 9 am, mice were fasted for 6 h from 9 am to 3 pm. Mice were injected intraperitoneally […] for PTT, and 0.5 U/kg insulin for ITT. Blood glucose was measured with a OneTouch Ultra glucose meter.

male C57BL/6J mice [4] = experiment: Glucose tolerance test (GTT); type: in vivo; settings: 60 mg/kg SQ twice; for glucose tolerance in GTT: 6 h fast
Experimental: On the day of testing, mice were fasted for 6 h (from 9 am to 3 pm). Mice were then given 2 g/kg D-glucose via IP injection. Blood glucose was measured with an UltraTouch glucometer in time course over a 120-minute period.
as §3

[5] = tested on: INS-1 832/13 rat pancreas β cells; experiment: Insulin secretion assay in INS-1 832/13 cells; type: cell-based
Experimental: Insulin secreted into the medium was measured, (c) Total remaining intracellular insulin was measured, (d) The % secreted insulin was the fraction of total medium insulin over the sum of insulin in the medium and cells. Results are from 3 independent experiments and expressed as mean ± SEM. Two-way ANOVA and Tukey post hoc test were used to calculate the p values.
INS-1 832/13 rat insulinoma cell line was purchased from Sigma-Aldrich (St. Louis, MO). Cells were cultured in 24-well plate in RPMI-1640 growth medium until 100% confluent. Cells were then treated with vehicle (DMSO) or 500 nM MLN4924 for 5 hrs. Cells were then incubated with 0.5 ml secretion assay buffer (SAB, 114 mM NaCl, 4.7 mM KCl, 1.2 mM KH2PO4, 1.16 mM MgSO4, 20 mM HEPES pH 7.2, 25.5 mM NaHCO3, 2.5 mM CaCl2, and 0.2% BSA) containing 2.5 mM glucose and either vehicle or 500 nM MLN4924 for 1 hr. This step was repeated once. Next, SAB containing 12 mM glucose (0.5 ml) was added to cells to stimulate insulin secretion for 1 hr. The SAB was then collected and cells were lysed in 0.2 ml 1X RIPA buffer. Insulin concentration in SAB and cell lysates was measured with an ELISA assay kit.

SMILES: NS(=O)(=O)OC[C@@H]1C[C@@H](n2ccc3c(N[C@H]4CCc5ccccc54)ncnc32)C[C@@H]1O [MLN4924, ((1S,2S,4R)-4-(4-((1S)-2,3-dihydro-1H-inden-1-ylamino)-7H-pyrrolo[2,3-d]pyrimidin-7-yl)-2-hydroxycyclopentyl) methyl sulfamate]
- obesity (high fat diet-fed mice): significantly reduces obesity
- hepatic CRL (cullin) neddylation ([1]; 60 mg/kg): effectively reduced hepatic CRL neddylation
- hepatic CRL (cullin) neddylation ([1]; listed as MLN4924, 60 mg/kg): effectively reduced hepatic cullin neddylation
- hepatic Y612 phosphorylated IRS1 ([1]; 60 mg/kg twice): increased Y612 phosphorylated IRS1
- hepatic IRS1 and IRS2 protein ([1]; 60 mg/kg twice, 60 mg/kg): rapidly increased hepatic IRS1 and IRS2; also recorded: increased hepatic IRS proteins
- hepatic phosphorylated AKT ([1]; 60 mg/kg twice, 60 mg/kg): higher phosphorylated AKT; also recorded: increased hepatic IRS proteins and AKT phosphorylation
- increase of AKT phosphorylation in skeletal muscle [2]: did not
- increase of IRS protein abundance in skeletal muscle [2]: did not
- inhibition of cullin neddylation in skeletal muscle [2]: did not inhibit cullin neddylation
- peak blood glucose at 30 minutes post pyruvate challenge (male C57BL/6J mice [3]; vs vehicle): significantly lower
- blood glucose excursion / hepatic glucose production in PTT (male C57BL/6J mice [3]; 4-week WD-fed mice): significantly lower
- blood glucose excursion / hepatic glucose production in PTT (male C57BL/6J mice [3]; 4-week chow-fed mice): significantly lower; also recorded: significantly reduced hepatic glucose production
- peak blood glucose at 30 minutes post glucose challenge (male C57BL/6J mice [4]; vs vehicle): significantly lower
- glucose tolerance in GTT (male C57BL/6J mice [4]; 3-week WD-fed mice): significantly improved glucose tolerance
- basal glucose levels after 6 h fasting (male C57BL/6J mice [4]; chow condition): did not significantly decrease basal glucose levels
- glucose tolerance in GTT (male C57BL/6J mice [4]; chow-fed mice, 60 mg/kg): significantly improved glucose tolerance; also recorded: improved overall glucose tolerance
- neddylation inhibition ([5]; 500 nM MLN4924, 7 hrs): strong neddylation inhibition
- basal insulin secretion ([5]; 500 nM MLN4924, 2.5 mM glucose): did not affect
- glucose-stimulated insulin secretion ([5]; 500 nM MLN4924, 12 mM glucose): did not affect
